This data set deals with PTEN, BCL2L11, PHF6, IKZF1, NF1, FBXW7. Kind of data set: 3′UTR reporter, quantitative PCR and immunoblot assays of tumor suppressor genes in murine leukemias. The class given is cell-based. The following applies: murine T-ALLs expressing NOTCH1 and miRNA, mRNA, protein. How it is done: Immunoblots of whole cell lysates were performed as described (Wendel, et al., 2004). Antibodies were against Bim/Bcl2l11 (AAP-330, 1:1000, Assay Designs), Nf1 (sc67, 1:100, Santa Cruz), Cdc4/Fbxw7 (ab7405, 1:500, Abeam), Ikzf1 (sc-13039, 1:500, Santa Cruz), Phf6 (NB100-79861, 1:1000, Novus Biologicals), Pten (9559, 1:1000, Cell Signaling), tubulin (1:5000; Sigma, B-5-1-2) and actin (1:5000; Sigma, AC-15).
Total RNA and miRNA-enriched RNA was extracted using the Allprep DNA/RNA/Protein and miRNeasy Mini kits. Pathological diagnosis was by expert hematopathologists at Weill Cornell Medical Center. cDNA synthesis, PCR and analysis by the ΔΔ Ct method were as described (Mavrakis, et al., 2008) and utilized Taqman Gene Expression Assays: Bcl2l11 (Mm00437796_m1), BCL2L11 (Hs00197982_m1), Pten (Mm01212532_m1), PTEN (Hs02621230_s1), Nf1 (Mm00812430_m1), NF1 (Hs01035104_m1), Ikzf1 (Mm01187878_m1), IKZF1 (Hs00172991_m1), Fbxw7 (Mm00504452_m1), FBXW7 (Hs00217794_m1), Phf6 (Mm00804415_m1), and Mouse GAPD (GAPDH) (4352932, Applied Biosystems). Expression was normalized to RNU6B (001093, Applied Biosystems).
The mouse FBXW7 (bp 2793-4139; acc. no. NM_001177773), human NF1 (bp 10033-10666; acc. no NM_000267), human PHF6 (bp position 3271-4299; acc. no. NM_001015877) and Bim (bp. 3155-4773; acc. no. NM_009754) 3′UTR fragments were generated by PCR and cloned into the psi-CHECK-2 vector (Promega) with the exception of the IKZF1 3′UTR, which was purchased from Genecopoeia (cat no. HmiT000397b, by 2343-4471 of UTR). The assays were performed as described (Xiao, et al., 2008).
For orientation: A western blot detects proteins with antibodies after separation by electrophoresis.

As for “miR-19: miRNA of the 17˜92 cluster, UGUGCAAAUCCAUGCAAAACUGA (SEQ ID NO: 2); seed family in Table 3 (expressed or natural sequence; listed as Homo sapiens)”, the “regulation of tumor suppressor genes” value was “regulates PTEN and BCL2L11 expression”.

These data come from US9624491B2, “Methods and compositions for the detection and treatment of cancer involving miRNAs and miRNA inhibitors and targets” (Memorial Sloan Kettering Cancer Center, priority 2010, dated 2017).
